We go through four compounds from patent publication US20220202822A1, “8-SUBSTITUTED ARYL VINYL XANTHINE DERIVATIVES AND USES THEREOF” (SUNSHINE LAKE PHARMA CO., LTD., priority 2019, published 2022).

pIC50: −log10 of the molar value.

Data set [1] has as its target T1, human adenosine A2A receptor (Homo sapiens, UniProt P29274).
T1 construct: expressed in transfected cells; host or cells: HEK-293
As to the kind of experiment: Antagonizing effect on human adenosine A2A receptor (cAMP, TR-FRET, NECA-stimulated HEK-293 cells). It counts as cell-based. The settings on record: inhibition of cAMP produced by NECA (3 nM), HEK-293 cells expressing human recombinant A2A receptor. The procedure:
The experimental system uses human recombinant adenosine A2A receptor, which is stably expressed in HEK-293 cell line. HEK-293 cells were inoculated into culture plate at a density of 1.25×10^5 cells /mL. The medium was changed by modified HBSS solution with pH 7.4, different concentrations of test compounds (10 μM, 1 μM, 0.1 μM, 10 nM, 1 nM, 0.1 nM) and solvents (PBS with 0.1% DMSO) were added, and the plate was incubated at 37° C. for 10 min. cAMP (cyclic adenosine monophosphate) concentration in culture medium was detected by TR-FRET method. NECA was used as a positive control in this experiment, (1) test compounds alone were used to stimulate cells to produce a certain amount of cAMP, and then NECA (0.1 μM) alone was used to stimulate cells to produce a certain amount of cAMP. A test compound is considered to have agonistic activity on adenosine A2A receptor if the test compound alone stimulates cells to produce cAMP more than 50% of the amount of cAMP produced by NECA (0.1 μM) alone. (2) All cells were first incubated with test compounds and then stimulated with NECA (3 nM). In addition, NECA (3 nM) alone was used to stimulate cells to produce a certain amount of cAMP. […] IC50 was calculated using MathIQ™ (ID Business Solutions Ltd., UK) through nonlinear, least squares regression equation analysis.

Data set [2] can be described thus: Pharmacokinetic evaluation in rats after intravenous or intragastric administration. The format is in vivo, SD rats. As to conditions: for AUC(0-inf) / AUC(0-t) / Cmax / MRT inf / Tmax / clearance / half-life: SD, rat, plasma. The procedure: The LC-MS/MS system for analysis includes the Agilent 1200 series vacuum degasser, a quaternary pump, an orifice plate sampler, a thermostatted column oven, and an API4000Qtrap triple quadrupole mass spectrometer with an electrospray ionization source (ESI).
Waters ACQUITY UPLC CSH C18, 2.1×50 mm, 1.7 μm column was used for analysis, and 0.8 μL of sample was injected. Analytical conditions: mobile phase was H2O+2 mM HCOONH4 (ammonium formate)+0.1% FA (formic acid) (mobile phase A) and MeOH (methanol)+2 mM HCOONH4 (ammonium formate)+0.1% FA (formic acid) (mobile phase B). Flow rate was 0.7 mL/min.
The experiment was divided into two groups: one was administered by intravenous injection, and the other was administered by intragastric administration. The compound of the present invention was administered to a test animal (overnight fast for 12 hours) in the form of 10% DMA (heating)+60% PEG400+30% saline solution. For the group of intravenous administration, the administration dose was 1 mg/kg, and vein blood samples (0.3 mL) were collected at the time points of 0.083, 0.25, 0.5, 1.0, 2.0, 5.0, 7.0 and 24 h after administration. EDTA-K2 as anticoagulant was added into the blood vessel. The plasma solutions were collected by centrifuging each blood sample at 3,000 rpm or 4,000 rpm for 10 minutes and kept at −20° C. or −70° C. For the group of intragastric administration, the administration dose was 5 mg/kg, and vein blood samples (0.3 mL) were collected at the time points of 0.25, 0.5, 1.0, 2.0, 5.0, 7.0 and 24 h after administration. EDTA-K2 as anticoagulant was added into the blood vessel. The plasma solutions were collected by centrifuging each blood sample at 3,000 rpm or 4,000 rpm for 10 minutes and kept at −20° C. or −70° C.
20 μL of plasma was taken, 120 μL of IS working solution was added to the plasma, and the plasma mixture was vortexed for 2 min. The mixed solution was then centrifuged at 12,000 rpm for 2 min. 100 μL of the supernatant was taken, 110 μL of MeOH/H2O (v/v=1/1) was added, and the solution was vortexed for 2 minutes, then 5 μL was taken for inj ection into the LC-MS/MS system.

The nature of data set [3]: Pharmacokinetic evaluation in beagles after intravenous or intragastric administration. The format is in vivo, beagle. The procedure: The LC/MS/MS system for analysis includes the Agilent 1200 series vacuum degasser, a quaternary pump, an orifice plate sampler, a thermostatted column oven, and an API4000Qtrap triple quadrupole mass spectrometer with an electrospray ionization source (ESI).
Waters xbridge C18, 2.1×50 mm, 3.5 μm column was used for analysis, and 0.5 μL of sample was injected. Analytical conditions: mobile phase consisting of mobile phase A (H2O+2 mM HCOONH4 (ammonium formate) +0.1% FA (formic acid)) and mobile phase B (MeOH (methanol)+2 mM HCOONH4 (ammonium formate)+0.1% FA (formic acid)). Flow rate was 0.7 mL/min.
The experiment was divided into two groups: one was administered by intravenous injection, and the other was administered by intragastric administration. The compound of the present invention was administered to a test animal in the form of 10% DMA (heating)+60% PEG400+30% saline solution. For the group of intravenous administration, the administration dose was 1 mg/kg, and vein blood samples (0.3 mL) were collected at the time points of 0.083, 0.25, 0.5, 1.0, 2.0, 4.0, 6.0, 8.0 and 24 h after administration. The plasma solutions were collected (EDTA-K2 as anticoagulant) by centrifuging each blood sample at 3,000 rpm or 4,000 rpm for 10 minutes and then kept at −20° C. or −70° C. For the group of intragastric administration, the administration dose was 5 mg/kg, and vein blood samples (0.3 mL) were collected at the time points of 0.25, 0.5, 1.0, 2.0, 5.0, 7.0 and 24 h after administration. The plasma solutions were collected (EDTA-K2 as anticoagulant) by centrifuging each blood sample at 3,000 rpm or 4,000 rpm for 10 minutes and then kept at −20° C. or −70° C.
10 μL of plasma was taken, 120 μL of IS working solution was added to the plasma, and the plasma mixture was vortexed for 2 min. The mixed solution was then centrifuged at 12,000 rpm for 2 min. 80 μL of the supernatant was taken, 140 μL of methanol/H2O (v/v =1/1) was added, and the solution was vortexed for 2 minutes, then 1.0 μL was taken for injection into the LC-MS/MS system. LC-MS/MS method was used to detect the concentration of target compounds, and non-compartment model was used to calculate pharmacokinetic parameters, and the results were shown in table C.

[4] abbreviates: po, intragastric administration, 5 mg/kg.
Setting [5] is: intragastric administration, 5 mg/kg.
[6] abbreviates: beagle, dog, plasma, intravenous injection, 1 mg/kg.
The mark [7] stands for this setting: beagle, dog, plasma, po, intragastric administration, 5 mg/kg.

T1 sequence (P29274 whole entry): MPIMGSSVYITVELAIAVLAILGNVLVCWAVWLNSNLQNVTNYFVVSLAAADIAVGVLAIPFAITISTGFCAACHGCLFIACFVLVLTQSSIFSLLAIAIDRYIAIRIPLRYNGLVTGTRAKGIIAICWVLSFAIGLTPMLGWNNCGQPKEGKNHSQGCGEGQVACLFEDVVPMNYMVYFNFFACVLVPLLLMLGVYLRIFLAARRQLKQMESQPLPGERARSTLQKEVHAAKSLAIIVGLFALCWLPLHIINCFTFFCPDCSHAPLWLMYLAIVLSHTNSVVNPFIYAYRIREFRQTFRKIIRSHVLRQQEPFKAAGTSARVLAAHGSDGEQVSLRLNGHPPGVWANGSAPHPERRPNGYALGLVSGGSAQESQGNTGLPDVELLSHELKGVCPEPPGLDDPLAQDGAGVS

For the compound `CCn1c(=O)c2c(nc(/C=C/c3ccc(OC4CCC(F)(F)CC4)cc3)n2C)n(CC)c1=O` [Example 6, (E)-8-(4-((4,4-difluorocyclohexyl)oxy)styryl)-1,3-diethyl-7-methyl-1H-purine-2,6(3H,7H)-dione], the negative logarithm of the IC50 (pIC50) in data set [1] was 5.83.

Regarding `CCn1c(=O)c2c(nc(/C=C/c3ccc(OC4CCS(=O)(=O)CC4)c(F)c3)n2C)n(CC)c1=O` [Example 2, (E)-8-(4-((1,1-dioxidotetrahydro-2H-thiopyran-4-yl)oxy)-3-fluorostyryl)-1,3-diethyl-7-methyl-1H-purine-2,6(3H,7H)-dione], in data set [1], the pIC50 is 5.49. In data set [2] (intravenous injection, 1 mg/kg), this compound yielded an AUC(0-inf) of 4230 ng·h/mL, an AUC(0-t) of 4180 ng·h/mL, a Cmax of 985 ng/mL and an MRT inf of 4.35 h. In addition, in data set [2] (intravenous injection, 1 mg/kg), the Tmax is 0.083 h, the clearance turned out to be 3.94 mL/min/kg, the half-life is 4 h and the Vss came out at 1.03 kg⁻¹. Moreover, in data set [2] (setting [4]), the total exposure AUC(0-inf) was 24400 ng·h/mL, the AUC(0-t) turned out to be 23700 ng·h/mL, the highest level (Cmax) was 3110 ng/mL and the MRT inf was determined as 5.94 h. For the same compound, in data set [2] (setting [4]), the Tmax came out at 1.67 h and the half-life was 4.77 h. This compound also showed a F in data set [2] (setting [5]) of 110.2%.

For the compound `CCn1c(=O)c2c(nc(/C=C/c3ccc(OC4CCS(=O)(=O)CC4)nc3)n2C)n(CC)c1=O` [Example 4, (E)-8-(2-(6-((1,1-dioxidotetrahydro-2H-thiopyran-4-yl)oxy)pyridin-3-yl)vinyl)-1,3-diethyl-7-methyl-1H-purine-2,6(3H,7H)-dione], in data set [1], the pIC50 was 5.52.

Take `CCn1c(=O)c2c(nc(/C=C/c3ccc(OC4CCS(=O)(=O)CC4)cc3)n2C)n(CC)c1=O` [Example 1, (E)-8-(4-((1,1-dioxidotetrahydro-2H-thiopyran-4-yl)oxy)styryl)-1,3-diethyl-7-methyl-1H-purine-2,6(3H,7H)-dione]: in data set [1], the negative logarithm of the IC50 (pIC50) is 5.60. In addition, in data set [3] (setting [6]), the area under the curve AUC(0-inf) was determined as 56300 ng·h/mL, the AUC(0-t) was determined as 25400 ng·h/mL, the peak concentration (Cmax) was found to be 1870 ng/mL and the MRT inf was determined as 41.5 h. In addition, in data set [3] (setting [6]), the time of peak concentration (Tmax) came to 1 h, the clearance was determined as 0.296 mL/min/kg and the half-life was 30.5 h. In data set [3] (setting [7]), this compound had an AUC(0-inf) of 114000 ng·h/mL, an AUC(0-t) of 40300 ng·h/mL, a Cmax of 2530 ng/mL and an MRT inf of 54 h. For the same compound, in data set [3] (setting [7]), the Tmax is 4.67 h and the half-life is 36.9 h. In data set [3] (setting [5]), this compound showed an F of 38.7%. In data set [3] (intravenous injection, 1 mg/kg), the Vss turned out to be 0.737 kg⁻¹. In data set [2] (intravenous injection, 1 mg/kg), this compound registered an AUC(0-inf) of 4360 ng·h/mL, an AUC(0-t) of 4340 ng·h/mL, a Cmax of 879 ng/mL and an MRT inf of 4.26 h. For the same compound, in data set [2] (intravenous injection, 1 mg/kg), the Tmax was 0.083 h, the clearance worked out at 3.82 mL/min/kg, the half-life was 3.35 h and the Vss was 0.977 kg⁻¹. In data set [2] (setting [4]), this compound yielded an AUC(0-inf) of 32300 ng·h/mL, an area under the curve AUC(0-t) of 32100 ng·h/mL, a Cmax of 3660 ng/mL and an MRT inf of 5.2 h. For the same compound, in data set [2] (setting [4]), the time of peak concentration (Tmax) is 1.67 h and the half-life was 3.39 h. This compound also came in with a F in data set [2] (setting [5]) of 148.2%.

For orientation: pIC50 means −log10 of the IC50, conventionally taken in molar units. Usually AUC(0-inf) stands for total exposure, with the tail of the curve extrapolated. Lower therefore signals less exposure. As a reminder, the AUC(0-t) is exposure summed from dosing to a finite time, without extrapolation to infinity. The term Cmax denotes the highest concentration seen after dosing. By MRT inf is commonly meant the average time that molecules of a dose stay in the body. What is called Tmax is the time at which the peak concentration occurs. As a reminder, the clearance is a measure of how efficiently the substance is removed, as volume per time. A high value points to a high capacity for elimination. For orientation: half-life means the time needed for the level to fall by half in the phase considered. Low readings indicate rapid decline, high ones slow decline.
